Experimental findings from patent publication US8785460B2, “Tricyclic compounds and use thereof” (Takeda Pharmaceutical Company Limited, priority 2008, dated 2014) are described below.

Each structure is given as a SMILES string. A value given as a limit tells only on which side of the number the result lay.

`CCC(O)c1ccc(Cl)c2nc3n(c12)CCCN3c1ccc(Cl)cc1Cl` (centres unmarked) [Example 112, 1-[9-Chloro-1-(2,4-dichlorophenyl)-1,2,3,4-tetrahydropyrimido[1,2-a]benzimidazol-6-yl]propan-1-ol]: the melting point – broadly, the temperature of the solid-liquid transition – was in the range of 244 to 245 °C.

Compound `COc1nc(C)c(N2CCCn3c2nc2c(Cl)ccc(C(NC(=O)C(F)F)C(F)(F)F)c23)c(C)n1` (centres unmarked) [Example 190, N-{1-[9-Chloro-1-(2-methoxy-4,6-dimethylpyrimidin-5-yl)-1,2,3,4-tetrahydropyrimido[1,2-a]benzimidazol-6-yl]-2,2,2-trifluoroethyl}-2,2-difluoroacetamide] came in with a melting point of 155 to 156 °C.

`O=C1CCCN1c1ccc(Cl)c2nc3n(c12)CCCN3c1ccc(Cl)cc1Cl` [Example 195, 1-[9-Chloro-1-(2,4-dichlorophenyl)-1,2,3,4-tetrahydropyrimido[1,2-a]benzimidazol-6-yl]pyrrolidin-2-one] displayed a melting point of 215 to 216 °C.

In the case of `CCC(=O)c1cccc2nc3n(c12)CCCN3c1ccc(Cl)cc1Cl` [Example 198, 1-[1-(2,4-Dichlorophenyl)-1,2,3,4-tetrahydropyrimido[1,2-a]benzimidazol-6-yl]propan-1-one], the melting point was 195 to 196 °C.

`O=C(c1cccc2nc3n(c12)CCCN3c1ccc(Cl)cc1Cl)C1CC1` [Example 199, Cyclopropyl[1-(2,4-dichlorophenyl)-1,2,3,4-tetrahydropyrimido[1,2-a]benzimidazol-6-yl]methanone] came in with a melting point of 189 to 190 °C.

`CCC(c1cccc2nc3n(c12)CCCN3c1ccc(Cl)cc1Cl)N(C)C` (centres unmarked) [Example 203, 1-[1-(2,4-Dichlorophenyl)-1,2,3,4-tetrahydropyrimido[1,2-a]benzimidazol-6-yl]-N,N-dimethylpropan-1-amine] gave a melting point of 144 to 145 °C.

Compound `CCC(C)Nc1cccc2nc3n(c12)CCCN3c1ccc(Cl)cc1Cl` (centres unmarked) [Example 207, 1-(2,4-Dichlorophenyl)-N-(1-methylpropyl)-1,2,3,4-tetrahydropyrimido[1,2-a]benzimidazol-6-amine] yielded a melting point of 180 to 181 °C.

For the compound `Cc1nc(O)nc(C)c1N1CCCn2c1nc1c(Cl)ccc(C(OC(F)F)C(F)(F)F)c12` (centres unmarked) [Example 215, 5-{9-Chloro-6-[1-(difluoromethoxy)-2,2,2-trifluoroethyl]-3,4-dihydropyrimido[1,2-a]benzimidazol-1(2H)-yl}-4,6-dimethylpyrimidin-2-ol], the melting point was in the range of 208 to 210 °C.

In turn, `CCC(CC)c1ccc(Cl)c2nc3n(c12)CCN3c1ccc(Cl)cc1C(N)=O` [Example 223, 5-Chloro-2-[8-chloro-5-(1-ethylpropyl)-2,3-dihydro-1H-imidazo[1,2-a]benzimidazol-1-yl]benzamide] registered a melting point of over 300 °C.

`CCC(CC)c1ccc(Cl)c2nc3n(c12)CCN3C(=O)c1ccc(Cl)nc1` [Example 228, 8-Chloro-1-[(6-chloropyridin-3-yl)carbonyl]-5-(1-ethylpropyl)-2,3-dihydro-1H-imidazo[1,2-a]benzimidazole]: the melting point was in the range of 205 to 207 °C.

`CCC(CC)c1ccc(Cl)c2nc3n(c12)CCN3C(=O)c1c(C)cc(C)cc1C` [Example 229, 8-Chloro-5-(1-ethylpropyl)-1-[(2,4,6-trimethylphenyl)carbonyl]-2,3-dihydro-1H-imidazo[1,2-a]benzimidazole] yielded a melting point of 234 to 236 °C.

With `CCOC(c1ccc(Cl)c2nc3n(c12)CCCN3c1ccc(OC)nc1C)C(F)(F)F` (centres unmarked) [Example 281, 9-Chloro-6-(1-ethoxy-2,2,2-trifluoroethyl)-1-(6-methoxy-2-methylpyridin-3-yl)-1,2,3,4-tetrahydropyrimido[1,2-a]benzimidazole], the melting point was in the range of 168 to 170 °C.

For the compound `Cc1nc(N2CCCC2)ccc1N1CCCn2c1nc1c(Cl)ccc(C(OC(F)F)C(F)(F)F)c12` (centres unmarked) [Example 294, 9-Chloro-6-[1-(difluoromethoxy)-2,2,2-trifluoroethyl]-1(2-methyl-6-pyrrolidin-1-ylpyridin-3-yl)-1,2,3,4-tetrahydropyrimido[1,2-a]benzimidazole], the melting point was 233 to 236 °C.

Compound `Cc1nc(N2CCCCC2)ccc1N1CCCn2c1nc1c(Cl)ccc(C(OC(F)F)C(F)(F)F)c12` (centres unmarked) [Example 295, 9-Chloro-6-[1-(difluoromethoxy)-2,2,2-trifluoroethyl]-1-(2-methyl-6-piperidin-1-ylpyridin-3-yl)-1,2,3,4-tetrahydropyrimido[1,2-a]benzimidazole] yielded a melting point of 164 to 167 °C.

Take `Cc1nc(N2CCOCC2)ccc1N1CCCn2c1nc1c(Cl)ccc(C(OC(F)F)C(F)(F)F)c12` (centres unmarked) [Example 296, 9-Chloro-6-[1-(difluoromethoxy)-2,2,2-trifluoroethyl]-1-(2-methyl-6-morpholin-4-ylpyridin-3-yl)-1,2,3,4-tetrahydropyrimido[1,2-a]benzimidazole]: the melting point was in the range of 191 to 193 °C.

In turn, `Cc1nc(N2CCN(C)CC2)ccc1N1CCCn2c1nc1c(Cl)ccc(C(OC(F)F)C(F)(F)F)c12` (centres unmarked) [Example 297, 9-Chloro-6-[1-(difluoromethoxy)-2,2,2-trifluoroethyl]-1-[2-methyl-6-(4-methylpiperazin-1-yl)pyridin-3-yl]-1,2,3,4-tetrahydropyrimido[1,2-a]benzimidazole] showed a melting point of 193 to 195 °C.

`Cc1nc(NC2CC2)ccc1N1CCCn2c1nc1c(Cl)ccc(C(OC(F)F)C(F)(F)F)c12` (centres unmarked) [Example 299, 5-{9-Chloro-6-[1-(difluoromethoxy)-2,2,2-trifluoroethyl]-3,4-dihydropyrimido[1,2-a]benzimidazol-1(2H)-yl}-N-cyclopropyl-6-methylpyridin-2-amine] had a melting point of 168 to 170 °C.

With `OC(c1ccc(Cl)c2nc3n(c12)CCCN3c1ccc(Cl)cc1Cl)(C(F)(F)F)C(F)(F)F` [Example 319, 2-[9-Chloro-1-(2,4-dichlorophenyl)-1,2,3,4-tetrahydropyrimido[1,2-a]benzimidazol-6-yl]-1,1,1,3,3,3-hexafluoropropan-2-ol], the melting point was in the range of 237 to 240 °C.

Take `CCC(O)c1ccc(Cl)c2nc3n(c12)CCCN3c1c(C)cc(Cl)cc1Cl` (centres unmarked) [Example 380, 1-[9-Chloro-1-(2,4-dichloro-6-methylphenyl)-1,2,3,4-tetrahydropyrimido[1,2-a]benzimidazol-6-yl]propan-1-ol]: the melting point was 210 to 211 °C.

Take `O=S(=O)(CC(F)(F)F)NC(c1ccc(Cl)c2nc3n(c12)CCCN3c1c(Cl)cc(Cl)cc1Cl)C(F)(F)F` (centres unmarked) [Example 417, N-{1-[9-Chloro-1-(2,4,6-trichlorophenyl)-1,2,3,4-tetrahydropyrimido[1,2-a]benzimidazol-6-yl]-2,2,2-trifluoroethyl}-2,2,2-trifluoroethanesulfonamide]: the melting point fell in the range of 237 to 239 °C.

`OC(c1ccc(Cl)c2nc3n(c12)CCN3c1ccc(Cl)cc1Cl)(C1CC1)C1CC1` [Example 430, [8-Chloro-1-(2,4-dichlorophenyl)-2,3-dihydro-1H-imidazo[1,2-a]benzimidazol-5-yl](dicyclopropyl)methanol] returned a melting point of 238 to 239 °C.

Compound `CCC(NC(=O)C1CC1)c1ccc(Cl)c2nc3n(c12)CCCN3c1ccc(Cl)cc1Cl` (centres unmarked) [Example 441, N-{1-[9-Chloro-1-(2,4-dichlorophenyl)-1,2,3,4-tetrahydropyrimido[1,2-a]benzimidazol-6-yl]propyl}cyclopropanecarboxamide] yielded a melting point of 251 to 253 °C.

In the case of `CCS(=O)(=O)Cc1ccc(Cl)c2nc3n(c12)CCCN3c1ccc(Cl)cc1Cl` [Example 461, 9-Chloro-1-(2,4-dichlorophenyl)-6-[(ethylsulfonyl)methyl]-1,2,3,4-tetrahydropyrimido[1,2-a]benzimidazole], the melting point fell in the range of 300 to 302 °C.

As for `CCN(CC)c1cccc2nc3n(c12)CCOC3c1ccc(Cl)cc1Cl` (centres unmarked) [Example 501, 1-(2,4-Dichlorophenyl)-N,N-diethyl-3,4-dihydro-1H-[1,4]oxazino[4,3-a]benzimidazol-6-amine], the melting point is 130 to 131 °C.

`CCN(CC)c1cccc2nc3n(c12)CCCN(C)C3c1ccc(Cl)cc1Cl` (centres unmarked) [Example 510, 1-(2,4-Dichlorophenyl)-N,N-diethyl-2-methyl-2,3,4,5-tetrahydro-1H-[1,4]diazepino[1,2-a]benzimidazol-7-amine] displayed a melting point of 132 to 133 °C.

`COc1nc(C)c(N2CCCn3c2nc2cccc(C(O)C(F)(F)F)c23)c(C)n1` (centres unmarked) [Example 517, 2,2,2-Trifluoro-1-[1-(2-methoxy-4,6-dimethylpyrimidin-5-yl)-1,2,3,4-tetrahydropyrimido[1,2-a]benzimidazol-6-yl]ethanol] had a melting point of 296 to 299 °C.

For `COc1nc(C)c(N2CCCn3c2nc2c(Br)ccc(C(OC(F)F)C(F)(F)F)c23)c(C)n1` (centres unmarked) [Example 519, 9-Bromo-6-[1-(difluoromethoxy)-2,2,2-trifluoroethyl]-1-(2-methoxy-4,6-dimethylpyrimidin-5-yl)-1,2,3,4-tetrahydropyrimido[1,2-a]benzimidazole], the melting point lay in the range of 211 to 213 °C.

In turn, `COc1nc(C)c(N2CCCn3c2nc2c(C#N)ccc(C(OC(F)F)C(F)(F)F)c23)c(C)n1` (centres unmarked) [Example 520, 6-[1-(Difluoromethoxy)-2,2,2-trifluoroethyl]-1-(2-methoxy-4,6-dimethylpyrimidin-5-yl)-1,2,3,4-tetrahydropyrimido[1,2-a]benzimidazole-9-carbonitrile] registered a melting point of 250 to 252 °C.

Compound `COc1nc(C)c(N2CCCn3c2nc2c(OC)ccc(C(OC(F)F)C(F)(F)F)c23)c(C)n1` (centres unmarked) [Example 526, 6-[1-(Difluoromethoxy)-2,2,2-trifluoroethyl]-9-methoxy-1-(2-methoxy-4,6-dimethylpyrimidin-5-yl)-1,2,3,4-tetrahydropyrimido[1,2-a]benzimidazole] returned a melting point of 201 to 203 °C.
